Experimental data as given in ChEMBL document CHEMBL5241069, “A key review on oxadiazole analogs as potential methicillin-resistant Staphylococcus aureus (MRSA) activity: Structure-activity relationship studies” (Eur J Med Chem, 2021).
Converted amounts (≈) assume the structure as drawn.

Tests used:
Staphylococcus aureus [1] = assay: Antimicrobial activity against methicillin resistant Staphylococcus aureus 2 assessed as inhibition of bacterial growth incubated for 16 to 20 hrs by CLSI protocol based Muller-Hinton broth method; type: functional; conditions: time 16-20 hrs
Staphylococcus aureus [2] = assay: Antimicrobial activity against methicillin resistant Staphylococcus aureus 1 assessed as inhibition of bacterial growth incubated for 16 to 20 hrs by CLSI protocol based Muller-Hinton broth method; type: functional; conditions: time 16-20 hrs
Staphylococcus aureus [3] = assay: Antimicrobial activity against methicillin resistant Staphylococcus aureus 3 assessed as inhibition of bacterial growth incubated for 16 to 20 hrs by CLSI protocol based Muller-Hinton broth method; type: functional; conditions: time 16-20 hrs
Staphylococcus aureus [4] = assay: microbe, parasite or virus in culture; conditions: 032
Description: Antibacterial activity against methicillin resistant Staphylococcus aureus 032 assessed as inhibition of bacterial growth by CLSI protocol based serial dilution method

Staphylococcus aureus [5] = assay: Antibacterial activity against methicillin resistant Staphylococcus aureus assessed as inhibition zone by disc diffusion method; type: functional
Staphylococcus aureus [6] = assay: Antibacterial activity against methicillin resistant Staphylococcus aureus assessed as inhibition of bacterial growth by broth dilution technique; type: functional
Staphylococcus aureus [7] = assay: Antibacterial activity methicillin resistant Staphylococcus aureus 2658 RCMB assessed as inhibition of bacterial growth by broth microdilution method; type: functional
Staphylococcus aureus [8] = assay: Antibiofilm activity against methicillin resistant Staphylococcus aureus ATCC 43866 assessed as inhibition of biofilm formation incubated for 18 to 24 hrs by tissue culture plate method; type: functional; conditions: time 18-24 hrs
Staphylococcus aureus [9] = assay: Antibacterial activity against methicillin resistant Staphylococcus aureus 128 assessed as inhibition of bacterial growth; type: functional
Staphylococcus aureus [10] = assay: Antibacterial activity against methicillin resistant Staphylococcus aureus 181 assessed as inhibition of bacterial growth; type: functional
Staphylococcus aureus [11] = assay: Antibacterial activity against methicillin resistant Staphylococcus aureus 747 assessed as inhibition of bacterial growth; type: functional
Staphylococcus aureus [12] = assay: Antibacterial activity against methicillin resistant Staphylococcus aureus 42 assessed as inhibition of bacterial growth; type: functional

In the case of `CCn1cc(C(=O)O)c(=O)c2cc(F)c(N3CCN(Cc4nnc(-c5ccc(OC)cc5)o4)CC3)cc21`, the MIC (Staphylococcus aureus [1]) is reported as 0.5 µg/mL (≈ 0.985 µM), the MIC (Staphylococcus aureus [2]) is reported as 1 µg/mL (≈ 1.97 µM) and the MIC (Staphylococcus aureus [3]) is reported as 1 µg/mL (≈ 1.97 µM).

Work on `Cc1nc(/C(=C\c2coc3ccccc3c2=O)c2ccc([N+](=O)[O-])cc2)no1` yielded an MIC (Staphylococcus aureus [4]) greater than 32 µg/mL.

With `CCCC(O)C/C=C/CCCCCCc1nnc(-c2ccco2)o1` (centres undefined) the “inhibition zone (IZ)” value (Staphylococcus aureus [5]) was 18.3 mm and the MIC (Staphylococcus aureus [6]) was 12.5 µg/mL (≈ 37.6 µM).

`Cc1nc(-c2ccc(C(C)(C)C)cc2)sc1-c1nnc(NN)o1` showed an MIC (Staphylococcus aureus [7]) of 6.25 µg/mL (≈ 19 µM).

Work on `CCn1cc(C(=O)O)c(=O)c2cc(F)c(N3CCN(Cc4nnc(-c5ccc(C#N)cc5)o4)CC3)cc21` yielded an MIC (Staphylococcus aureus [1]) of 1 µg/mL (≈ 1.99 µM), an MIC (Staphylococcus aureus [2]) of 1 µg/mL (≈ 1.99 µM) and an MIC (Staphylococcus aureus [3]) of 2 µg/mL (≈ 3.98 µM).

For `Cc1nc(-c2ccc(C(C)(C)C)cc2)sc1-c1nnc(NC(=N)N)o1`, the MIC (Staphylococcus aureus [7]) was 6.25 µg/mL (≈ 17.5 µM).

Compound `Cc1nc(-c2ccc(C(C)(C)C)cc2)sc1-c1nnc(NC(=N)N2CCN(C)CC2)o1` has an MIC (Staphylococcus aureus [7]) of 25 µg/mL (≈ 56.9 µM).

In the case of `C=CCCCCCCCc1nnc(-c2ccccc2Cl)o1`, the “inhibition zone (IZ)” value (Staphylococcus aureus [5]) is reported as 14.4 mm and the MIC (Staphylococcus aureus [6]) is reported as 12.5 µg/mL (≈ 41 µM).

Work on `Cc1nc(-c2ccc(C(C)(C)C)cc2)sc1-c1nnc(NC(=N)c2cccnc2)o1` yielded an MIC (Staphylococcus aureus [7]) greater than 50 µg/mL.

Compound `CC[C@H]1OC(=O)[C@H](C)[C@@H](O[C@H]2C[C@@](C)(OC)[C@@H](O)[C@H](C)O2)[C@H](C)[C@@H](O[C@@H]2O[C@H](C)C[C@H](N(C)C)[C@H]2O)[C@](C)(O)C[C@@H](C)C(=O)[C@H](C)[C@@H](O)[C@]1(C)O` [ERYTHROMYCIN] has an MIC (Staphylococcus aureus [4]) greater than 32 µg/mL.

Work on `Cn1c(-c2nnc(-c3ccccc3O)o2)cc(Br)c1Br` yielded an MIC (Staphylococcus aureus [8]) of 6.25 µg/mL (≈ 15.7 µM).

With `CCCCC/C=C/CCC(O)CCCCCCc1nnc(-c2ccccc2Cl)o1` (centres undefined) the “inhibition zone (IZ)” value (Staphylococcus aureus [5]) was 19.7 mm and the MIC (Staphylococcus aureus [6]) was 12.5 µg/mL (≈ 29.8 µM).

`Cn1c(-c2nnc(-c3ccc([N+](=O)[O-])cc3)o2)cc(Br)c1Br` showed an MIC (Staphylococcus aureus [8]) of 3.12 µg/mL (≈ 7.3 µM).

In the case of `CCCCCCCCCCCCCCC(Br)c1nnc(-c2ccco2)o1` (centres undefined), the “inhibition zone (IZ)” value (Staphylococcus aureus [5]) is reported as 21.6 mm and the MIC (Staphylococcus aureus [6]) is reported as 12.5 µg/mL (≈ 29.4 µM).

Work on `CO/N=C(\C(=O)N[C@@H]1C(=O)N2C(C(=O)[O-])=C(C[N+]3(C)CCCC3)CS[C@H]12)c1csc(N)n1` yielded an MIC (Staphylococcus aureus [9]) of 20 µg/mL (≈ 41.6 µM), an MIC (Staphylococcus aureus [10]) of 15.2 µg/mL (≈ 31.6 µM) and an MIC (Staphylococcus aureus [11]) of 26.9 µg/mL (≈ 56 µM). The MIC (Staphylococcus aureus [12]) was 36.5 µg/mL (≈ 76 µM).

Work on `O=c1c(F)cnc2onc(-c3cccc(F)c3F)n12` yielded an MIC (Staphylococcus aureus [9]) of no less than 125 µg/mL, an MIC (Staphylococcus aureus [10]) of no less than 125 µg/mL and an MIC (Staphylococcus aureus [11]) of no less than 125 µg/mL. The MIC (Staphylococcus aureus [12]) was 115 µg/mL (≈ 429 µM).

With `CCCCC/C=C/CCC(O)CCCCCCc1nnc(-c2ccco2)o1` (centres undefined) the “inhibition zone (IZ)” value (Staphylococcus aureus [5]) was 13.2 mm and the MIC (Staphylococcus aureus [6]) was 12.5 µg/mL (≈ 33.4 µM).

In the case of `O=c1c(F)cnc2onc(-c3ccc(F)cc3F)n12`, the MIC (Staphylococcus aureus [9]) is reported as 87.4 µg/mL (≈ 327 µM), the MIC (Staphylococcus aureus [10]) is reported as 100 µg/mL (≈ 375 µM) and the MIC (Staphylococcus aureus [11]) is reported as no less than 125 µg/mL. The MIC (Staphylococcus aureus [12]) was 96.4 µg/mL (≈ 361 µM).

`O=c1c(Br)cnc2onc(-c3ccc(Br)cc3)n12` gave an MIC (Staphylococcus aureus [9]) of 120 µg/mL (≈ 325 µM), an MIC (Staphylococcus aureus [10]) of no less than 125 µg/mL and an MIC (Staphylococcus aureus [11]) of no less than 125 µg/mL. It also gave an MIC (Staphylococcus aureus [12]) of 114 µg/mL (≈ 306 µM).

`O=c1c(Br)cnc2onc(-c3c(F)cccc3F)n12` was tested, and the MIC (Staphylococcus aureus [9]) was 32.4 µg/mL (≈ 98.8 µM), the MIC (Staphylococcus aureus [10]) was 40.2 µg/mL (≈ 123 µM) and the MIC (Staphylococcus aureus [11]) was 40.2 µg/mL (≈ 123 µM). The MIC (Staphylococcus aureus [12]) was 15.8 µg/mL (≈ 48.2 µM).

Compound `Cn1c(-c2nnc(-c3ccc(Cl)cc3)o2)cc(Br)c1Br` has an MIC (Staphylococcus aureus [8]) of 1.56 µg/mL (≈ 3.74 µM).

Work on `CCn1cc(C(=O)O)c(=O)c2cc(F)c(N3CCN(Cc4nnc(-c5ccccc5C)o4)CC3)cc21` yielded an MIC (Staphylococcus aureus [1]) of 0.5 µg/mL (≈ 1.02 µM), an MIC (Staphylococcus aureus [2]) of 1 µg/mL (≈ 2.03 µM) and an MIC (Staphylococcus aureus [3]) of 2 µg/mL (≈ 4.07 µM).

With `Cc1nc(/C(=C\c2coc3ccc(F)cc3c2=O)c2ccc([N+](=O)[O-])cc2)no1` the MIC (Staphylococcus aureus [4]) was greater than 32 µg/mL.

`O=c1c(F)cnc2onc(-c3ccc(Cl)cc3)n12` showed an MIC (Staphylococcus aureus [9]) of no less than 125 µg/mL, an MIC (Staphylococcus aureus [10]) of no less than 125 µg/mL and an MIC (Staphylococcus aureus [11]) of no less than 125 µg/mL. For the same compound, the MIC (Staphylococcus aureus [12]) was 111 µg/mL (≈ 416 µM).

Work on `O=c1c(Br)cnc2onc(-c3ccccc3)n12` yielded an MIC (Staphylococcus aureus [9]) of no less than 125 µg/mL, an MIC (Staphylococcus aureus [10]) of no less than 125 µg/mL and an MIC (Staphylococcus aureus [11]) of no less than 125 µg/mL. For the same compound, the MIC (Staphylococcus aureus [12]) was 123 µg/mL (≈ 422 µM).

`C=Cc1ccc(Oc2nnc(-c3cc(Br)c(Br)n3C)o2)c(OC)c1` was tested, and the MIC (Staphylococcus aureus [8]) was 25 µg/mL (≈ 54.9 µM).

For `Cn1c(-c2nnc(-c3cc(F)ccc3Cl)o2)cc(Br)c1Br`, the MIC (Staphylococcus aureus [8]) was 3.12 µg/mL (≈ 7.18 µM).

In the case of `CCCC(O)C/C=C/CCCCCCc1nnc(-c2ccccc2Cl)o1` (centres undefined), the “inhibition zone (IZ)” value (Staphylococcus aureus [5]) is reported as 19.5 mm and the MIC (Staphylococcus aureus [6]) is reported as 12.5 µg/mL (≈ 33.2 µM).

With `CCCCCCCCCCCCCCC(Br)c1nnc(-c2ccccc2Cl)o1` (centres undefined) the “inhibition zone (IZ)” value (Staphylococcus aureus [5]) was 20.5 mm and the MIC (Staphylococcus aureus [6]) was 12.5 µg/mL (≈ 26.6 µM).

In the case of `Cc1nc(-c2ccc(C(C)(C)C)cc2)sc1-c1nnc(NC(=N)c2ccccn2)o1`, the MIC (Staphylococcus aureus [7]) is reported as greater than 50 µg/mL.
